Assay results from patent US6008258A (priority 1998, dated 1999).
“Also recorded” adds a separate entry of the source. Structures can show the parent of a compound that is named as a salt. Where two headings read alike, the source gives them in different places.

Columns and labels:
morphine tolerance = details: Elliott et al.; cited from earlier work
[1] = test system: formalin-induced nociceptive behavior; details: pretreatment, literature, cited from earlier work
spinal cord neurons = details: Dickenson et al.; cited from earlier work
rat [2] = type: in vivo
NMDA receptors = details: cited from earlier work
humans = humans (Olsen); cited from earlier work
mice = mice (Smits); cited from earlier work
rat [3] = details: rats (Ingoglia); cited from earlier work
NMDA-induced behaviors = test: Intrathecal NMDA-induced nociceptive behaviors
rat [4] = test: Formalin test (formalin-induced flinching), intrathecal drug
rat [5] = test: Tail-flick test, intrathecal, cumulative dose-response and time course; details: for antinociceptive (analgesic) effect in tail-flick test: up to cumulative 460 μg/rat; for blockade of antinociceptive effect of l-methadone: naloxone 30 μg/rat + l-methadone 80 μg/rat IT
[6] = test system: NMDA-induced nociceptive behaviors; details: Okano et al.; cited from earlier work
[7] = test system: mu-type of the opioid receptor; details: Neil; cited from earlier work
[8] = test system: NMDA receptor in rat cortical membranes; details: rat cortical membranes (Ebert); cited from earlier work
[9] = test system: NMDA-induced depolarization; details: in vitro (Ebert), cited from earlier work
[10] = test system: pain syndromes unresponsive to morphine; details: anecdotal case reports; cited from earlier work
[11] = target: NMDA receptor, rat forebrain; details: used to calculate Ki; no footnote a; read-out: Kd (CGS19755), forebrain; cited from earlier work
[12] = test system: NMDA receptor (noncompetitive MK-801 site), rat forebrain; type: binding

Compound: COc1ccc2c(c1)[C@]13CCCC[C@@H]1[C@H](C2)N(C)CC3 [Dextromethorphan]
- effect on development of tolerance to morphine (morphine tolerance): attenuates and reverses
- effect on nociceptive responses in formalin test [1]: attenuates nociceptive responses
- effect on nociceptive responses in formalin test ([1]; listed as dextromethorphan): reduces
- effect on wind up of spinal cord neurons (spinal cord neurons): suppresses

Compound: CN1CC[C@]23c4c5ccc(O)c4O[C@H]2[C@@H](O)C=C[C@H]3[C@H]1C5 [Morphine]
- Morphine ED50 (95% CI) (rat [2]; SALINE + MORPHINE, Day 2 (so in the source)): 37.6 (28.5-56.7) ug/rat
- Morphine ED50 (95% CI) (rat [2]; SALINE, Day 1): 1.0 (0.5-1.8) ug/rat
- binding to NMDA receptors (NMDA receptors): do not bind to NMDA receptors

Compound: CCC(=O)C(C[C@H](C)N(C)C)(c1ccccc1)c1ccccc1 [d-Methadone, (S)-(+)-methadone]
- development of morphine tolerance (rat [2]; rat, in vivo): prevented the development of morphine tolerance
- effect of d-methadone alone on morphine ED50 (rat [2]; rat, in vivo): did not alter
- morphine ED50 in d-methadone+morphine group (rat [2]; rat, in vivo): not significantly increased
- analgesic potency vs l-methadone (less potent) (humans): 50 fold
- opioid-like locomotor activity (mice): does not produce opioid-like locomotor activity
- activity following intraventricular administration (rat [3]): inactive
- blockade of an ED99 dose of NMDA (NMDA-induced behaviors; 250 μg (809 nmol)/rat, NMDA 2.4 nmol/rat): completely blocked
- increase of NMDA ED50 (NMDA-induced behaviors; d-methadone 250 μg/rat): more than 3 fold
- effect on phase 2 flinching vs saline (rat [4]; 250 μg/rat IT, with or without naloxone 30 μg/rat): significantly reduce
- decrease in phase 2 flinching (rat [4]; 320 μg/rat spinal): 68%
- effect on number of flinches, phase 1 (rat [4]; IT 32, 160, 320 μg/rat, 0-10 minutes): did not affect; also recorded: not during phase 1
- effect on flinching behavior, phase 2 (rat [4]; IT 32, 160, 320 μg/rat, 10-60 minutes): dose-dependently reduces
- antinociceptive (analgesic) effect in tail-flick test (rat [5]; intrathecal): no antinociceptive effects
- antinociceptive (analgesic) effect in tail-flick test (rat [5]; intrathecal, listed as d-methadone): None of the rats that received d-methadone became an analgesic responder; also recorded: no analgesia

Compound: C=CCN1CC[C@]23c4c5ccc(O)c4O[C@H]2C(=O)CC[C@@]3(O)[C@H]1C5 [Naloxone]
- reversal by naloxone of antinociceptive effect of d-methadone (rat [4]; naloxone 30 μg/rat + d-methadone 250 μg/rat IT): did not affect; also recorded: not reversed; also recorded: not blocked
- effect of naloxone alone on base-line tail-flick latencies / antinociception (rat [5]; 30 μg/rat spinal): did not affect base-line tail-flick latencies or produce an antinociceptive (analgesic) response
- blockade of antinociceptive effect of l-methadone (rat [5]): completely blocked
- blockade of antinociceptive effect of l-methadone (rat [5]; listed as naloxone): completely blocked; also recorded: blocks; also recorded: effectively antagonized
- duration of blockade of l-methadone effect (rat [5]; naloxone 30 μg/rat vs l-methadone 80 μg/rat): at least 75 minutes

Compound: 3-amino-5-phosphonovaleric acid [APV]
- effect on nociceptive responses in formalin test [1]: reduces
- antagonism of NMDA-induced nociceptive behaviors [6]: antagonized

Compound: CCC(=O)C(CC(C)N(C)C)(c1ccccc1)c1ccccc1 (racemic) [dl-Methadone]
- binding to mu-type of the opioid receptor [7]: binds preferentially
- affinity for the NMDA receptor [8]: low μm affinity
- effect on NMDA-induced depolarization [9]: reduced NMDA-induced depolarizations
- effect on NMDA-induced depolarization ([9]; listed as racemic methadone): reduces NMDA-induced depolarization
- management of pain syndromes unresponsive to morphine [10]: successful management

Compound: O=C(O)[C@@H]1C[C@H](CP(=O)(O)O)CCN1 [CGS19755]
- Kd [11]: 24 nM

Compound: CN[C@H](CC(=O)O)C(=O)O [NMDA, N-methyl-D-aspartate]
- ED99 dose of NMDA (NMDA-induced behaviors; intrathecal): 2.4 nmol/rat
- NMDA ED50 (95% CI) (NMDA-induced behaviors; pretreatment with saline or d-methadone 250 μg/rat): 1.3 (1.0-1.6) nmol/rat IT

Compound: C[C@]12N[C@H](Cc3ccccc31)c1ccccc12 [MK-801, (+)-5 methyl-10,11-dihydro-5H-dibenzo[a,d]cyclo-hepten-5, 10-imine hydrogen maleate]
- effect on development of tolerance to morphine (morphine tolerance): attenuates and reverses
- effect on nociceptive responses in formalin test [1]: reduces

Compound: CNC1(c2ccccc2Cl)CCCCC1=O (centres unmarked) [Ketamine]
- effect on nociceptive responses in formalin test [1]: reduces

Compound: CCC(=O)C(C[C@@H](C)N(C)C)(c1ccccc1)c1ccccc1 [l-Methadone, (R)-(-)-methadone]
- time of peak analgesic effect (rat [5]; 40 μg/rat spinal, time course study): 15 min
- ED50, tail-flick test (rat [5]; IT, cumulative dose-response): 15.6 ug/rat
- antinociceptive (analgesic) effect in tail-flick test (rat [5]; intrathecal): dose-dependent antinociception
- ED50, tail-flick antinociception (rat [5]; intrathecal, 95% CI 7.0-29.8): 15.6 μg/rat
- approximately ED90 antinociceptive dose (rat [5]; spinal, tail-flick test): ~80 μg/rat

Compound: O=C(O)[C@@H]1C[C@H]2C[C@@H](CP(=O)(O)O)CC[C@H]2CN1 [LY274614]
- effect on development of tolerance to morphine (morphine tolerance): attenuates and reverses

Compound: O=C1CC[C@@]2(O)[C@H]3Cc4ccc(O)c5c4[C@@]2(CCN3CC2CC2)[C@H]1O5 [Naltrexone]
- displacement of [3H]MK-801 binding [12]: did not displace
- Ki ([12]; read-out: [3H]MK-801 Ki, forebrain): > 100000 nM
